In the NIST ThermoML archive (doi:10.1021/acs.jced.7b01064):

Key:
[1] = xn = mol fraction of the nth substance listed; details: 100 kPa, Liquid, x1 = 0.5; for viscosity: Concentric cylinders viscometry; for mass density: Vibrating tube method
[2] = molar heat capacity at constant pressure; xn = mol fraction of the nth substance listed; details: 74.66 kPa, Liquid, DSC, x1 = 0.5
[3] = Liquid, Closed cell (Static) method

CCCCOC(=O)CC(O)(CC(=O)O)C(=O)OCCCC (configuration not stated) [2-hydroxy-1,2,3-propanetricarboxylic acid 1,2-dibutyl ester] + CCCCOC(=O)CC(O)(CC(=O)OCCCC)C(=O)O
Details | mass density [kg/m3] | molar heat capacity at constant pressure [J/K/mol] | viscosity [mPa·s]
[1], 298.15 K | 1129.7 | – | 3220
[1], 303.15 K | 1124.2 | – | 2120
[1], 313.15 K | 1113.4 | – | 1130
[2], 321.5 K | – | 712.66 | –
[2], 324.8 K | – | 718.9 | –
[2], 328.2 K | – | 724.78 | –
[2], 331.5 K | – | 730.1 | –
[2], 334.8 K | – | 734.82 | –
[2], 338.2 K | – | 739.17 | –
[2], 341.5 K | – | 743.58 | –
[2], 344.8 K | – | 747.72 | –

CCCCO [butan-1-ol]
[3]
Details | vapor or sublimation pressure [kPa]
293.15 K | 0.56
298.15 K | 0.84
303.15 K | 1.23
308.15 K | 1.76
313.15 K | 2.44
318.15 K | 3.33
323.15 K | 4.35
328.15 K | 5.33
